Results: ChEMBL document CHEMBL1201862, “PubChem BioAssay data set” (2004)
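Tested at 5 concentrations; 48 h exposure; 96-well plates; endpoints linearly interpolated, else capped at highest concentration. GI50 marks 50% less growth.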 The source made the active and inactive calls. No stated cut-off is given here; in the data, active = GI50 up to about 1.1 µM and inactive = higher.

How the values were obtained:
Test in all cases: DTP human tumour cell line panel, 48 h
[1] = tested on: A549
[2] = tested on: ACHN
[3] = tested on: HCT-116
[4] = tested on: HOP-62
[5] = tested on: HT-29
[6] = tested on: Hs-578T
[7] = tested on: KM12
[8] = tested on: Malme-3M
[9] = tested on: NCI-H23
[10] = tested on: NCI/ADR-RES
[11] = tested on: OVCAR-8
[12] = tested on: RXF 393
[13] = tested on: SF-268
[14] = tested on: SF-539
[15] = tested on: SK-MEL-2
[16] = tested on: SK-MEL-5
[17] = tested on: SK-OV-3
[18] = tested on: UACC-62
[19] = tested on: SN12C
[20] = tested on: MDA-N

Measured: GI50

Cc1ccc(/N=N/c2c(O)c(C(=O)O)cc3ccccc23)cc1C
inactive: [1] > 100 µM | [2] > 100 µM | [3] > 100 µM | [4] 62.5 µM | [5] > 100 µM | [6] 42.3 µM | [7] > 100 µM | [8] > 100 µM | [9] > 100 µM | [10] > 100 µM | [11] > 100 µM | [12] > 100 µM | [13] > 100 µM | [14] > 100 µM | [15] > 100 µM | [16] > 100 µM | [17] > 100 µM | [18] > 100 µM

O=C1C=CC(=C(c2ccc(O)cc2)c2ccc(O)cc2)C=C1 [AURIN]
inactive: [1] 22 µM | [2] 15.2 µM | [3] 10.8 µM | [4] 20.2 µM | [5] 18.6 µM | [7] 12.8 µM | [8] 12 µM | [9] 8.57 µM | [11] 12.7 µM | [12] 5.07 µM | [13] 13.2 µM | [14] 11.3 µM | [15] 3.88 µM | [16] 7.06 µM | [17] 17.9 µM | [19] 8.47 µM | [18] 3.91 µM

C[C@H]1C(=O)O[C@@H]1[C@H]1COC(C)(C)O1
inactive: [1] > 100 µM | [2] > 100 µM | [4] > 100 µM | [7] > 100 µM | [20] > 100 µM | [9] > 100 µM | [10] > 100 µM | [11] > 100 µM | [12] > 100 µM | [13] > 100 µM | [14] > 100 µM | [15] > 100 µM | [17] > 100 µM | [19] > 100 µM | [18] > 100 µM

CCCOc1ccc2sc(NC(=O)c3cc([N+](=O)[O-])cc([N+](=O)[O-])c3)nc2c1
inactive: [1] 24.1 µM | [2] 48.4 µM | [3] 20.6 µM | [4] 78.9 µM | [5] 69.8 µM | [6] 13.7 µM | [7] 26.8 µM | [8] 25.4 µM | [9] 23 µM | [10] 22.6 µM | [11] 31.3 µM | [12] 48.4 µM | [13] 43.8 µM | [14] 29.2 µM | [15] 50.2 µM | [16] 17 µM | [17] 36.5 µM | [19] 42.1 µM | [18] 25.5 µM
